From US10022359B2, “1,9-diazaspiro undecane compounds having multimodal activity against pain” (LABORATORIOS DEL DR. ESTEVE S.A., priority 2014, dated 2018)

Target: human σ1 receptor and human μ-opioid receptor
Assay: Human σ1 receptor and human μ-opioid receptor radioligand assays (dual binding)
Conditions: combined class for Ki-μ ([3H]-DAMGO, transfected CHO-K1 membranes) and Ki-σ1 ([3H](+)-pentazocine, transfected HEK-293 membranes)

| Compound | Ki [nM] |
| --- | --- |
| O=C(c1ccccn1)N1CCOCC12CCN(CCc1ccccc1)CC2 [Example 11, (9-phenethyl-4-oxa-1,9-diazaspiro[5.5]undecan-1-yl)(pyridin-2-yl)methanone] | ≥ 500 |
| O=C(c1ccncc1)N1CCOCC12CCN(CCc1ccccc1)CC2 [Example 13, (9-phenethyl-4-oxa-1,9-diazaspiro[5.5]undecan-1-yl)(pyridin-4-yl)methanone] | ≥ 500 |
| O=C(c1cccnc1)N1CCOCC12CCN(CCc1ccccc1)CC2 [Example 14, (9-phenethyl-4-oxa-1,9-diazaspiro[5.5]undecan-1-yl)(pyridin-3-yl)methanone] | ≥ 500 |
| O=C(c1cscn1)N1CCOCC12CCN(CCc1ccccc1)CC2 [Example 16, (9-phenethyl-4-oxa-1,9-diazaspiro[5.5]undecan-1-yl)(thiazol-4-yl)methanone] | ≥ 500 |
| O=C(Cc1ccccn1)N1CCOCC12CCN(CCc1ccccc1)CC2 [Example 17, 1-(9-phenethyl-4-oxa-1,9-diazaspiro[5.5]undecan-1-yl)-2-(pyridin-2-yl)ethanone] | ≥ 500 |
| O=C(Cc1ccncc1)N1CCOCC12CCN(CCc1ccccc1)CC2 [Example 19, 1-(9-phenethyl-4-oxa-1,9-diazaspiro[5.5]undecan-1-yl)-2-(pyridin-4-yl)ethanone] | ≥ 500 |
| O=C(c1cncs1)N1CCOCC12CCN(CCc1ccccc1)CC2 [Example 20, (9-phenethyl-4-oxa-1,9-diazaspiro[5.5]undecan-1-yl)(thiazol-5-yl)methanone] | ≥ 500 |
| O=C(Cc1cccnc1)N1CCOCC12CCN(CCc1ccccc1)CC2 [Example 22, 1-(9-phenethyl-4-oxa-1,9-diazaspiro[5.5]undecan-1-yl)-2-(pyridin-3-yl)ethanone] | ≥ 500 |
| Fc1cnccc1CN1CCOCC12CCN(CCc1ccccc1)CC2 [Example 31, 1-((3-fluoropyridin-4-yl)methyl)-9-phenethyl-4-oxa-1,9-diazaspiro[5.5]undecane] | ≥ 500 |
| O=[N+]([O-])c1cccc(CCN2CCC3(CC2)COCCN3c2ccccc2)c1 [Example 41, 9-(3-nitrophenethyl)-1-phenyl-4-oxa-1,9-diazaspiro[5.5]undecane] | ≥ 500 |
| O=C(CN1CCC2(CC1)COCCN2C(=O)c1ccccc1)c1ccccc1 [Example 45, 2-(1-benzoyl-4-oxa-1,9-diazaspiro[5.5]undecan-9-yl)-1-phenylethanone] | ≥ 500 |
| Nc1cccc(CCN2CCC3(CC2)COCCN3c2ccccc2)c1 [Example 50, 3-(2-(1-phenyl-4-oxa-1,9-diazaspiro[5.5]undecan-9-yl)ethyl)aniline] | ≥ 500 |
| O=C(c1ccccc1)N1CCOCC12CCN(CC(O)c1ccccc1)CC2 (stereo not shown) [Example 51, (9-(2-hydroxy-2-phenylethyl)-4-oxa-1,9-diazaspiro[5.5]undecan-1-yl)(phenyl)methanone] | ≥ 500 |
